Reference: US20070185118A1, “Use of methylene amide derivatives in cardiovascular disorders” (APPLIED RESEARCH SYSTEMS ARS HOLDING N.V., priority 2004, published 2007)

Assays:
[1] = test system: mesenteric arteries of mice with chronic heart failure; test: Flow-mediated dilatation of isolated mesenteric arteries from mice with chronic heart failure (coronary artery occlusion model); type: cell-based, C57BL6 mice; settings: CHF mouse arteries, in-vitro incubation 30 min, preconstriction by phenylephrine
Source text: Experimentally, flow-induced release of NO in small peripheral arteries (i.e. arteries that contribute to the increased resistance in heart failure) may be assessed in vitro in isolated perfused, pressurized arteries such as small (<300 μm diameter) mesenteric or hindquarter arteries.
Chronic heart failure is induced in C57BL6 mice (n=12) by coronary ligation according to the model developed in rats by Varin et al,1999, Circulation, 99, 2951-2957.
Mice are anesthetized, ventilated and a thoracotomy (incision of the pleural cavity) is performed. The left main coronary artery is ligated close to its origin. This procedure leads to the development of an infarct involving around 40% of the left ventricle. Post-infarction mortality in this mouse model is around 40-50%.
The development of heart failure is assessed by echocardiography in the closed chest state 7 days and 2 months after coronary ligation. Sham-operated (normal) mice are subjected to the same protocol except that the artery is not be ligated. […]
(§1) Flow-mediated vasodilatation (FMD), i.e. changes in vessel diameter in response to stepwise increases in intra-luminal flow (0-200 μl/min) is evaluated after preconstriction by phenylephrine (incubated 2min at 10^-5 M) after a contraction plateau is reached, at baseline and after incubation with a compound of the invention: […]

[2] = test system: mesenteric arteries of normal mice; test: Flow-mediated dilatation of isolated mesenteric arteries from normal (sham-operated) mice; type: cell-based, C57BL6 mice; settings: 10^-5 M, compared with the roughly abolished response in CHF arteries (FIG. 1)
Description: The flow-mediated dilatation response in a normal mouse (open circles) is compared to the flow-mediated dilatation response of mesenteric arteries in either normal mouse subjected to an inhibitor of NO synthesis (left, black circles) or in a mouse wherein chronic heart failure (CHF) has been induced as described in Example 1 (right, black circles).
The development of heart failure is assessed by echocardiography in the closed chest state 7 days and 2 months after coronary ligation. Sham-operated (normal) mice are subjected to the same protocol except that the artery is not be ligated. Six mice are present in each group and mice that survived myocardial infarction are further used in the study.
After two months, the mice is anesthetized and subjected to laparotomy (incision into the abdominal cavity).
A portion of the mesenteric artery (diameter 250-350 μm) is carefully isolated under a dissection microscope, and a 1.5to 2.0-mm length segment is cannulated on both ends, transferred to an arteriograph (Living Systems Instrumentation) and pressurized to 60 mm Hg.
as §1

| Structure (SMILES) | flow-mediated dilatation (% dilatation) restoration ([1]; 10^-5 M in Krebs buffer, flow 0-200 μl/min (FIG. 2 left)) | flow-mediated dilatation (% dilatation) restoration ([1]; 10^-6 M in Krebs buffer, flow 0-200 μl/min (FIG. 2 right)) | inhibition of the flow-mediated dilatation response [2] |
| --- | --- | --- | --- |
| CCCCCCc1ccc(C#Cc2ccc(CN(Cc3ccc(C(F)(F)F)cc3)C(=O)C(=O)O)cc2)cc1 [Compound 1, {{4-[(4-hexylphenyl)ethynyl]benzyl}[4-(trifluoromethyl)benzyl]amino}(oxo)acetic acid] | restored to the normal level | restored to the normal level |  |
| N=C(NCCC[C@H](N)C(=O)O)N[N+](=O)[O-] [NG-nitro-L-arginine] |  |  | inhibition of the dilatation response is similar |
